Reference: patent US20120052130A1, “GPR 119 MODULATORS” (Pfizer Inc., priority 2009, published 2012)
Several values for one entry are separate records, joined by “and”; a condition that tells them apart may be missing. Equal entries are not always repeated.

Columns and labels:
human GPR119 [1] = molecular target: T1, human GPR119 (Homo sapiens, UniProt Q8TDV5); experiment: HTRF cAMP cell-based GPR119 agonist assay (hGPR119 HEK-CRE beta-lactamase cells); parameters: host or cells: hGPR119-HEK293-CRE-beta-lactamase cells; conditions: HTRF cAMP, hGPR119 HEK-CRE beta-lactamase cells; each line is a separate determination; read-out: Human cAMP Functional EC50
T1 sequence (Q8TDV5 1-335): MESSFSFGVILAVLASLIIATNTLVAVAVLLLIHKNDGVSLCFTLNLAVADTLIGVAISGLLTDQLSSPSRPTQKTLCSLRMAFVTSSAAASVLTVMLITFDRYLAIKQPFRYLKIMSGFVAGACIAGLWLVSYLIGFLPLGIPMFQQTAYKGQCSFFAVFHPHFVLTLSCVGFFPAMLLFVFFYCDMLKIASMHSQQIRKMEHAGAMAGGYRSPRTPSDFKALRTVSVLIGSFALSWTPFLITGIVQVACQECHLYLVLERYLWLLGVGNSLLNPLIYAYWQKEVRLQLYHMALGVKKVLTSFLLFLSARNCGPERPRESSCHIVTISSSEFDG
Description: GPR119 agonist activity was also determined with a cell-based assay utilizing an HTRF (Homogeneous Time-Resolved Fluorescence) cAMP detection kit (cAMP dynamic 2 Assay Kit; Cis Bio cat #62AM4PEC) that measures cAMP levels in the cell. The method is a competitive immunoassay between native cAMP produced by the cells and the cAMP labeled with the dye d2. The tracer binding is visualized by a Mab anti-cAMP labeled with Cryptate. The specific signal (i.e. energy transfer) is inversely proportional to the concentration of cAMP in either standard or sample.
Specifically, hGPR119HEK-CRE beta-lactamase cells (Invitrogen 2.5×10^7/mL; the same cell line used in the beta-lactamase assay described above) are removed from cryopreservation and diluted in growth medium (Dulbecco's modified Eagle medium high glucose (DMEM; Gibco Cat #11995-065), 1% charcoal dextran treated fetal bovine serum (CD serum; HyClone Cat # SH30068.03), 1×MEM Nonessential amino acids (Gibco Cat #15630-080) and 25 mM HEPES pH 7.0 (Gibco Cat #15630-080)). The cell concentration was adjusted to 1.5×10^5 cells/mL and 30 mLs of this suspension was added to a T-175 flask and incubated at 37 degrees Celsius in a humidified environment in 5% carbon dioxide. […]
Varying concentrations of each compound to be tested were diluted in assay buffer containing 3-isobutyl-1-methylxanthin (IBMX; Sigma cat #15879) and added to the assay plate wells in a volume of 2 microL (final IBMX concentration was 400 microM and final DMSO concentration was 0.58%). […] The plates were then incubated at room temperature and after 60 minutes, changes in the HTRF signal were read with an Envision 2104 multilabel plate reader using excitation of 330 nm and emissions of 615 and 665 nm. Raw data were converted to nM cAMP by interpolation from a cAMP standard curve (as described in the manufacturer's assay protocol) and EC50 determinations were made from an agonist-response curves analyzed with a curve fitting program using a 4-paramter logistic dose response equation.

human GPR119 [2] = molecular target: T2, human GPR119 (Homo sapiens, UniProt Q8TDV5); experiment: DiscoverX PathHunter β-arrestin cell assay (U2OS hGPR119 β-arrestin cell line); type: cell-based; conditions: U2OS hGPR119 β-arrestin cells; each line is a separate determination; read-out: Human B-arrestin Functional EC50
T2 construct: host or cells: U2OS hGPR119 β-arrestin cell line
Description: GPR119 agonist activity was also determined with a cell-based assay utilizing DiscoverX PathHunter β-arrestin cell assay technology and their U2OS hGPR119 β-arrestin cell line (DiscoverX Cat #93-0356 C3). In this assay, agonist activation is determined by measuring agonist-induced interaction of β-arrestin with activated GPR119. A small, 42 amino acid enzyme fragment, called ProLink was appended to the C-terminus of GPR119. Arrestin was fused to the larger enzyme fragment, termed EA (Enzyme Acceptor). […]
After 16 hours (overnight) the assay plates were removed from the incubator and varying concentrations of each compound to be tested (diluted in assay buffer (1×HBSS+CaCl2+MgCl2 (Gibco Cat #14025-092), 20 mM HEPES pH 7.0 (Gibco Cat #15630-080) and 0.1% BSA (Sigma Cat # A9576)) were added to the assay plate wells in a volume of 5 microliters (final DMSO concentration was 0.5%). After a 90 minute incubation at 37 degrees Celsius in a humidified environment in 5% carbon dioxide, 12 microliters of Galacton Star β-galactosidase substrate (PathHunter Detection Kit (DiscoveRx Cat #93-0001); prepared as described in the manufacturers assay protocol) was added to each well of the assay plate. The plates were incubated at room temperature and after 60 minutes, changes in the luminescence were read with an Envision 2104 multilabel plate reader at 0.1 seconds per well. […]
T2 sequence (P32121 whole entry partner, one chain of several): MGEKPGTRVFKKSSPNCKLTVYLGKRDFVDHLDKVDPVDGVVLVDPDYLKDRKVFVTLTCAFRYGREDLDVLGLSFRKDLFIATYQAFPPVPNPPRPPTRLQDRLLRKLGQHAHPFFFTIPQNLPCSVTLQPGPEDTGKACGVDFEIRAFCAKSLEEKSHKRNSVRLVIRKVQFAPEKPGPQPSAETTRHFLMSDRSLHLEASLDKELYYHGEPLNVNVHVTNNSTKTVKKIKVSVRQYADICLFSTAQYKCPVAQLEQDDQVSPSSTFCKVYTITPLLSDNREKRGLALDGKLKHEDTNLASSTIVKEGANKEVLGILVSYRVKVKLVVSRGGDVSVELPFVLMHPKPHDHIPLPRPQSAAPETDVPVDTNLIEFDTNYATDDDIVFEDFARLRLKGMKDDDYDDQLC

SMILES | EC50 (human GPR119 [1]) | EC50 (human GPR119 [2])
Cc1c(O[C@@H]2[C@@H]3COC[C@H]2CN(C(=O)OC(C)C)C3)ncnc1N1CCc2cc(S(C)(=O)=O)ccc21 [Example 23, Isopropyl (9-syn)-9-({5-methyl-6-[5-(methylsulfonyl)-2,3-dihydro-1H-indol-1-yl]pyrimidin-4-yl}oxy)-3-oxa-7-azabicyclo[3.3.1]nonane-7-carboxylate] | 311 nM and 982 nM and 1040 nM and 1330 nM | 37 nM
Cc1c(O[C@@H]2[C@@H]3COC[C@H]2CN(C(=O)OC2(C)CC2)C3)ncnc1N1CCc2ncccc21 [Example 28, 1-Methylcyclopropyl (9-syn)-9-{[6-(2,3-dihydro-1H-pyrrolo[3,2-b]pyridin-1-yl)-5-methylpyrimidin-4-yl]oxy}-3-oxa-7-azabicyclo[3.3.1]nonane-7-carboxylate] | 370 nM and 194 nM and 88 nM | 3.79 nM
